Experimental data published in the supplement of paper PMC10307832.

How the values were obtained:
Test in all cases: relative viability (nuclei count vs DMSO), 5 days (fraction); higher = more cells survive
[1] = compound: CN[C@@H]1C[C@H]2O[C@@](C)([C@@H]1OC)n1c3ccccc3c3c4c(c5c6ccccc6n2c5c31)C(=O)NC4 [Staurosporine] + N=C(N)NC(=N)NCCc1ccccc1 [Phenformin] (partner 250 µM)
Method in brief: (§1)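 Each reported value is a median over duplicate plates. It expresses relative viability: treated-well nuclei count divided by vehicle-well nuclei count. Lung cancer cell lines in 1536-well plates were dosed by pin tool a day after seeding, alone with one drug or with a fixed anchor-drug dose plus five library-drug doses (not always all listed) in √10 steps, and nuclei were counted after 5 days.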

Sulindac + Tozasertib = compound: CC1=C(CC(=O)O)c2cc(F)ccc2/C1=C\c1ccc([S+](C)[O-])cc1 [Sulindac] + Cc1cc(Nc2cc(N3CCN(C)CC3)nc(Sc3ccc(NC(=O)C4CC4)cc3)n2)n[nH]1 [Tozasertib] (partner 0.1 µM)
Method in brief: as §1

Sulindac + Olaparib = compound: CC1=C(CC(=O)O)c2cc(F)ccc2/C1=C\c1ccc([S+](C)[O-])cc1 [Sulindac] + O=C(c1cc(Cc2n[nH]c(=O)c3ccccc23)ccc1F)N1CCN(C(=O)C2CC2)CC1 [Olaparib] (partner 8 µM)
Method in brief: as §1

[2] = compound: CN[C@@H]1C[C@H]2O[C@@](C)([C@@H]1OC)n1c3ccccc3c3c4c(c5c6ccccc6n2c5c31)C(=O)NC4 [Staurosporine] + C[C@]1(O)C[C@@H](c2nc(-c3ccc4ccc(-c5ccccc5)nc4c3)c3c(N)nccn32)C1 [Linsitinib] (partner 1 µM)
Method in brief: as §1

Cell Line | relative viability ([1]; first compound 0.005 µM) | relative viability ([1]; first compound 0.01581 µM) | relative viability ([1]; first compound 0.05 µM) | relative viability ([1]; first compound 0.1581 µM) | relative viability ([1]; first compound 0.5 µM) | relative viability (Sulindac + Tozasertib; first compound 0.08 µM) | relative viability (Sulindac + Tozasertib; first compound 0.253 µM) | relative viability (Sulindac + Tozasertib; first compound 0.8 µM) | relative viability (Sulindac + Tozasertib; first compound 2.53 µM) | relative viability (Sulindac + Tozasertib; first compound 8 µM) | relative viability (Sulindac + Olaparib; first compound 0.08 µM) | relative viability (Sulindac + Olaparib; first compound 0.253 µM) | relative viability (Sulindac + Olaparib; first compound 0.8 µM) | relative viability (Sulindac + Olaparib; first compound 2.53 µM) | relative viability (Sulindac + Olaparib; first compound 8 µM) | relative viability ([2]; first compound 0.005 µM) | relative viability ([2]; first compound 0.01581 µM) | relative viability ([2]; first compound 0.05 µM) | relative viability ([2]; first compound 0.1581 µM) | relative viability ([2]; first compound 0.5 µM)
NCI-H1623 | 0.574 | 0.578 | 0.631 | 0.59 | 0.306 | 0.392 | 0.458 | 0.421 | 0.418 | 0.429 |  |  |  |  |  |  |  |  |  | 
NCI-H322M |  | 0.348 |  | 0.289 | 0.248 | 0.483 | 0.485 | 0.47 | 0.51 | 0.499 | 0.674 | 0.772 | 0.742 | 0.837 | 0.87 | 1.12 | 0.648 | 0.56 | 0.427 | 0.458
NCI-H2405 | 0.326 | 0.162 | 0.117 | 0.0864 | 0.0856 | 0.733 | 0.795 | 0.684 | 0.793 | 0.751 | 0.93 | 0.851 | 0.86 | 0.831 | 1.08 | 0.214 | 0.127 | 0.113 | 0.0901 | 0.0874
HCC-44 | 0.104 | 0.0863 | 0.0757 | 0.0829 | 0.0953 | 1.08 | 1.04 |  | 0.938 | 0.981 | 0.983 | 1.05 | 0.773 | 0.933 | 1.01 | 0.328 | 0.194 | 0.101 | 0.111 | 0.0981
HCC-78 | 0.639 | 0.45 | 0.486 | 0.376 | 0.287 | 0.445 | 0.476 | 0.403 | 0.42 | 0.367 | 0.972 | 0.812 | 0.763 | 0.784 | 0.686 | 0.613 | 0.457 | 0.363 | 0.295 | 0.268
COR-L23 | 0.243 | 0.18 | 0.14 | 0.0737 | 0.0585 | 0.591 | 0.242 | 0.179 | 0.186 | 0.238 | 0.348 | 0.449 | 0.291 | 0.323 | 0.376 | 0.534 | 0.27 | 0.134 | 0.0552 | 0.041
NCI-H2009 | 0.207 | 0.188 | 0.216 | 0.131 | 0.0831 | 0.883 | 0.809 | 0.712 | 0.707 | 0.99 | 0.893 | 0.716 | 0.679 | 0.666 | 0.754 | 0.681 | 0.269 | 0.216 | 0.18 | 0.116
NCI-H3122 | 0.283 |  | 0.335 | 0.12 | 0.0915 | 0.4 | 0.469 | 0.377 | 0.352 | 0.466 | 0.739 | 0.648 | 0.579 | 0.655 | 0.604 | 1.11 | 0.561 | 0.874 | 0.544 | 0.247
NCI-H2228 | 0.254 | 0.166 | 0.11 | 0.0655 | 0.0891 | 0.222 | 0.248 | 0.242 | 0.294 | 0.262 | 0.941 | 0.804 | 0.499 | 0.637 | 0.516 | 0.608 | 0.483 | 0.141 | 0.183 | 0.113
NCI-H1944 | 0.19 | 0.11 | 0.141 | 0.102 | 0.0775 | 0.258 | 0.263 | 0.254 | 0.247 | 0.259 | 0.433 | 0.404 | 0.302 | 0.438 | 0.42 | 1.39 |  | 0.696 | 0.472 | 0.367
NCI-H1648 |  |  |  |  |  | 0.397 | 0.482 | 0.345 | 0.415 | 0.389 | 1.38 | 0.827 |  | 0.997 | 0.695 |  |  |  |  | 
NCI-H358 | 0.337 | 0.0847 | 0.0848 | 0.0499 | 0.0405 | 0.112 | 0.0982 | 0.104 | 0.0899 | 0.102 | 0.809 | 0.667 | 0.526 | 0.573 | 0.62 | 0.573 | 0.281 | 0.189 | 0.152 | 0.122
NCI-H1755 | 0.384 | 0.24 | 0.196 | 0.195 | 0.161 | 0.52 | 0.586 | 0.573 | 0.593 | 0.694 | 0.888 | 0.952 | 0.829 | 0.85 | 0.991 | 0.856 | 0.595 | 0.283 | 0.18 | 0.171
NCI-H1792 | 0.255 | 0.0732 | 0.0598 | 0.0859 | 0.0427 |  |  |  |  |  | 0.429 | 0.449 |  | 0.453 | 0.725 | 0.488 | 0.287 | 0.105 | 0.114 | 0.0997
NCI-H1563 | 0.566 | 0.533 | 0.577 | 0.506 | 0.416 |  |  |  |  |  |  |  |  |  |  | 0.752 | 0.611 | 0.733 | 0.654 | 0.478
NCI-H2342 | 0.686 |  | 0.427 | 0.301 | 0.281 | 0.447 | 0.492 | 0.513 | 0.397 | 0.583 | 0.353 | 0.368 | 0.414 | 0.415 | 0.451 |  |  |  |  | 
NCI-H522 | 0.783 |  | 0.594 | 0.41 | 0.405 | 0.676 | 0.643 | 0.541 | 0.502 | 0.575 | 0.694 | 0.735 | 0.558 | 0.633 | 0.61 |  |  |  |  | 
EBC-1 |  |  |  |  |  |  |  |  |  |  | 0.846 | 0.643 | 0.545 | 0.748 | 0.816 | 0.738 | 0.523 | 0.181 | 0.122 | 0.111
NCI-H1650 | 0.217 | 0.147 | 0.109 | 0.108 | 0.0714 | 0.456 | 0.381 |  | 0.287 | 0.426 | 0.827 | 0.723 | 0.705 | 0.742 | 0.757 |  |  |  |  | 
IA-LM |  |  |  |  |  |  |  |  |  |  | 0.932 | 0.925 |  | 0.953 | 0.881 |  | 0.271 | 0.16 | 0.128 | 0.07
